Measurements taken from ChEMBL document CHEMBL1124295, “Synthesis and oral antiallergic activity of carboxylic acids derived from imidazo[2,1-c][1,4]benzoxazines, imidazo[1,2-a]quinolines, imidazo[1,2-a]quinoxalines, imidazo[1,2-a]quinoxalinones, pyrrolo[1,2-a]quinoxalinones, pyrrolo[2,3-a]quinoxalinones, and imidazo[2,1-b]benzothiazoles” (1988).
The source made the active and inactive calls. The calls are words filed in the database; no cut-off is given here.

What was measured:
Rattus norvegicus [1] = assay: Inhibition of the IgE-mediated passive cutaneous anaphylaxis (PCA) reaction in rat after oral administration; NA means inactive at 1 and 10 mg/Kg; format: functional, organism-based
Rattus norvegicus [2] = assay: Inhibition of the IgE-mediated passive cutaneous anaphylaxis (PCA) reaction in rat after intravenous administration; Range 0.91-3.86; format: functional
Rattus norvegicus [3] = assay: Inhibition of the IgE-mediated passive cutaneous anaphylaxis (PCA) reaction in rat after oral administration; Range 4.38-21.4; format: functional
Rattus norvegicus [4] = assay: Inhibition of the IgE-mediated passive cutaneous anaphylaxis (PCA) reaction in rat after intravenous administration; Inactive at 1 and 10 mg/kg; format: functional, organism-based; design: dose 10 mg/kg
Rattus norvegicus [5] = assay: Inhibition of the IgE-mediated passive cutaneous anaphylaxis (PCA) reaction in rat after oral administration; Inactive at 1 and 10 mg/kg; format: functional, organism-based; design: dose 10 mg/kg
Rattus norvegicus [6] = assay: Inhibition of the IgE-mediated passive cutaneous anaphylaxis (PCA) reaction in rat after intravenous administration; Range 2.91-4.95; format: functional
Rattus norvegicus [7] = assay: Inhibition of the IgE-mediated passive cutaneous anaphylaxis (PCA) reaction in rat after intravenous administration; Range 1.61-7; format: functional
Rattus norvegicus [8] = assay: Inhibition of the IgE-mediated passive cutaneous anaphylaxis (PCA) reaction in rat after oral administration; Range 0.3-10.04; format: functional
Rattus norvegicus [9] = assay: Inhibition of the IgE-mediated passive cutaneous anaphylaxis (PCA) reaction in rat after intravenous administration; Range 0.058-0.12; format: functional
Rattus norvegicus [10] = assay: Inhibition of the IgE-mediated passive cutaneous anaphylaxis (PCA) reaction in rat after oral administration; Inactive(45% inhibition at 20 mg/kg); format: functional
Rattus norvegicus [11] = assay: Inhibition of the IgE-mediated passive cutaneous anaphylaxis (PCA) reaction in rat after oral administration; NA means inactive 1 and 10 mg/kg; format: functional, organism-based; design: dose 10 mg/kg
Rattus norvegicus [12] = assay: Inhibition of the IgE-mediated passive cutaneous anaphylaxis (PCA) reaction in rat after intravenous administration; NA means inactive at 1 and 10 mg/Kg; format: functional, organism-based
Rattus norvegicus [13] = assay: Inhibition of the IgE-mediated passive cutaneous anaphylaxis (PCA) reaction in rat after oral administration; Inactive at 10 mg/kg; format: functional, organism-based; design: dose 10 mg/kg
Rattus norvegicus [14] = assay: Inhibition of the IgE-mediated passive cutaneous anaphylaxis (PCA) reaction in rat after intravenous administration; Range 0.057-0.091; format: functional
Rattus norvegicus [15] = assay: Inhibition of the IgE-mediated passive cutaneous anaphylaxis (PCA) reaction in rat after oral administration; Range 0.54-0.9; format: functional
Rattus norvegicus [16] = assay: Inhibition of the IgE-mediated passive cutaneous anaphylaxis (PCA) reaction in rat after intravenous administration; NA means inactive; format: functional, organism-based
Rattus norvegicus [17] = assay: Inhibition of the IgE-mediated passive cutaneous anaphylaxis (PCA) reaction in rat after intravenous administration; Range 0.021-0.03; format: functional
Rattus norvegicus [18] = assay: Inhibition of the IgE-mediated passive cutaneous anaphylaxis (PCA) reaction in rat after oral administration; Inactive(50% inhibition at 10 mg/kg); format: functional
Rattus norvegicus [19] = assay: Inhibition of the IgE-mediated passive cutaneous anaphylaxis (PCA) reaction in rat after intravenous administration; Range 0.20-0.35; format: functional
Rattus norvegicus [20] = assay: Inhibition of the IgE-mediated passive cutaneous anaphylaxis (PCA) reaction in rat after intravenous administration; Range 0.022-0.04; format: functional
Rattus norvegicus [21] = assay: Inhibition of the IgE-mediated passive cutaneous anaphylaxis (PCA) reaction in rat after intravenous administration; Range 0.12-0.35; format: functional
Rattus norvegicus [22] = assay: Inhibition of the IgE-mediated passive cutaneous anaphylaxis (PCA) reaction in rat after intravenous administration; Range 2.20-3.00; format: functional
Rattus norvegicus [23] = assay: Inhibition of the IgE-mediated passive cutaneous anaphylaxis (PCA) reaction in rat after intravenous administration; Range 0.13-0.26; format: functional
Rattus norvegicus [24] = assay: Inhibition of the IgE-mediated passive cutaneous anaphylaxis (PCA) reaction in rat after intravenous administration; […]; format: functional
Rattus norvegicus [25] = assay: Inhibition of the IgE-mediated passive cutaneous anaphylaxis (PCA) reaction in rat after oral administration; Range 1.22-2.52; format: functional
Rattus norvegicus [26] = assay: Inhibition of the IgE-mediated passive cutaneous anaphylaxis (PCA) reaction in rat after oral administration; Range 0.025-0.282; format: functional
Rattus norvegicus [27] = assay: Inhibition of the IgE-mediated passive cutaneous anaphylaxis (PCA) reaction in rat after intravenous administration; Range 0.005-0.033; format: functional
Rattus norvegicus [28] = assay: Inhibition of the IgE-mediated passive cutaneous anaphylaxis (PCA) reaction in rat after intravenous administration; Inactive; format: functional, organism-based
Rattus norvegicus [29] = assay: Inhibition of the IgE-mediated passive cutaneous anaphylaxis (PCA) reaction in rat after oral administration; Inactive; format: functional, organism-based
Rattus norvegicus [30] = assay: Inhibition of the IgE-mediated passive cutaneous anaphylaxis (PCA) reaction in rat after intravenous administration; Range 0.04-0.154; format: functional
Rattus norvegicus [31] = assay: Inhibition of the IgE-mediated passive cutaneous anaphylaxis (PCA) reaction in rat after intravenous administration; Range 1.04-1.42; format: functional
Rattus norvegicus [32] = assay: Inhibition of the IgE-mediated passive cutaneous anaphylaxis (PCA) reaction in rat after oral administration; NA means Inactive; format: functional, organism-based

c1ccc2c(c1)OCc1nc(-c3nn[nH]n3)cn1-2
ED50 (Rattus norvegicus [1]): inactive

CCOC(=O)c1cn2c(n1)c(C#N)cc1ccccc12
ED50 (Rattus norvegicus [1]): inactive

CC1Oc2ccccc2-n2cc(C(=O)O)nc21 (centres undefined)
ED50 (Rattus norvegicus [2]): 1.76 mg/kg | ED50 (Rattus norvegicus [3]): 8.46 mg/kg

O=C(O)c1cn2c(n1)c(-c1ccccc1)cc1ccccc12
ED50 (Rattus norvegicus [4]): inactive

O=C(O)c1nc(Cc2ccccc2)n2c1c(O)nc1ccccc12
ED50 (Rattus norvegicus [5]): inactive

O=C(O)c1cn2c(ccc3c(Cl)cccc32)n1
ED50 (Rattus norvegicus [6]): 3.74 mg/kg

NC(=O)c1cn2c(ccc3ccccc32)n1
ED50 (Rattus norvegicus [1]): inactive

Cc1c(C(=O)O)nc2cc(Cl)c3ccccc3n12
ED50 (Rattus norvegicus [5]): inactive

O=C(O)c1cn2c(cc(-c3ccccc3)c3ccccc32)n1
ED50 (Rattus norvegicus [5]): inactive

O=C(O)c1cc2c(ccc3ccccc32)s1
ED50 (Rattus norvegicus [4]): inactive

CCC1Oc2ccccc2-n2cc(C(=O)O)nc21 (centres undefined)
ED50 (Rattus norvegicus [7]): 2.6 mg/kg

CCOC(=O)c1cn2c(cc(Cl)c3ccc(Cl)cc32)n1
ED50 (Rattus norvegicus [8]): 1.49 mg/kg

O=C(O)c1nnn2c1c(O)nc1ccccc12
ED50 (Rattus norvegicus [9]): 0.084 mg/kg | inhibition in vivo at 20 mg/kg (Rattus norvegicus [10]): 45%

COC(=O)c1nc2n(c1CO)-c1ccccc1OC2
ED50 (Rattus norvegicus [1]): inactive

N#Cc1cn2c(n1)COc1ccccc1-2
ED50 (Rattus norvegicus [11]): inactive

CCOC(=O)c1c(C(=O)OC)nc2n1-c1ccccc1OC2
ED50 (Rattus norvegicus [12]): inactive

CCOC(=O)c1cn2c(n1)c(=O)n(Cc1ccccc1)c1ccccc12
ED50 (Rattus norvegicus [13]): inactive

O=C(O)c1cn2c(cnc3ccccc32)n1 [DAZOQUINAST]
ED50 (Rattus norvegicus [14]): 0.073 mg/kg | ED50 (Rattus norvegicus [15]): 0.13 mg/kg

CCn1c(=O)c2ccccc2n2cc(C(=O)O)nc12
ED50 (Rattus norvegicus [16]): inactive

CS(=O)(=O)c1ccc2ccc3nc(C(=O)O)cn3c2c1
ED50 (Rattus norvegicus [17]): 0.028 mg/kg | inhibition in vivo at 10 mg/kg (Rattus norvegicus [18]): 50%

O=C(O)c1cn2c(ccc3cc([N+](=O)[O-])ccc32)n1
ED50 (Rattus norvegicus [19]): 0.28 mg/kg

CCn1c(=O)c2cc(C(=O)O)cn2c2cc(C)c(C)cc21
ED50 (Rattus norvegicus [20]): 0.03 mg/kg

O=C(O)c1cn2c(n1)c(CO)cc1ccccc12
ED50 (Rattus norvegicus [4]): inactive

O=C(O)c1cn2c(cnc3cc(Cl)c(Cl)cc32)n1
ED50 (Rattus norvegicus [21]): 0.2 mg/kg | ED50 (Rattus norvegicus [5]): inactive

CS1(=O)=Nc2nc(C(=O)O)cn2-c2ccccc21 (centres undefined)
ED50 (Rattus norvegicus [22]): 2.59 mg/kg

O=C(Cc1cn2c(n1)COc1ccccc1-2)Nc1nn[nH]n1
ED50 (Rattus norvegicus [12]): inactive

c1ccc2c(c1)OCc1nc(CN3CCCCC3)cn1-2
ED50 (Rattus norvegicus [12]): inactive

CCn1c(=O)c2cc(C(=O)Nc3nn[nH]n3)cn2c2ccccc21
ED50 (Rattus norvegicus [23]): 0.18 mg/kg

O=C(O)c1cc2c(=O)n(C3CCCC3)c3ccccc3n2c1
ED50 (Rattus norvegicus [24]): 0.037 mg/kg | ED50 (Rattus norvegicus [25]): 1.96 mg/kg

c1ccc2c(c1)ncc1nc(-c3nn[nH]n3)cn12
ED50 (Rattus norvegicus [26]): 0.089 mg/kg | ED50 (Rattus norvegicus [27]): 0.012 mg/kg

COc1ccc2c(OC(C)C)cc3nc(C(=O)O)cn3c2c1
inhibition in vivo at 10 mg/kg (Rattus norvegicus [18]): 50%

CCn1c(=O)c2c(C(=O)OC)c(C(=O)O)cn2c2ccccc21
ED50 (Rattus norvegicus [28]): inactive

CCOC(=O)c1cn2c3ccccc3c(=O)n(CC)c2n1
ED50 (Rattus norvegicus [29]): inactive

O=C(O)c1cn2c(ccc3ccc(C(F)(F)F)cc32)n1
ED50 (Rattus norvegicus [30]): 0.07 mg/kg

O=C([O-])c1cc(=O)c2c(OCC(O)COc3cccc4oc(C(=O)[O-])cc(=O)c34)cccc2o1.[Na+].[Na+] [CROMOLYN SODIUM]
ED50 (Rattus norvegicus [31]): 1.21 mg/kg | ED50 (Rattus norvegicus [32]): inactive

O=C(O)c1nc2n(c1CO)-c1ccccc1OC2
ED50 (Rattus norvegicus [1]): inactive
